Test results from PMC10835127, “Viruses traverse the human proteome through peptide interfaces that can be biomimetically leveraged for drug discovery” (Proceedings of the National Academy of Sciences of the …, 2024).
Values after ≈ are worked out from the molar mass of the structure shown. Where two headings read alike, the source gives them in different places.

Experiments:
Kinetic solubility = type: physicochemical; conditions: PBS pH 7.4 buffer, pH 7.4, aqueous buffer, kinetic from dmso stock
Protocol: 10 mM DMSO Stock solutions of tested compounds were distributed into filtration plate (Multiscreen Durapore 0.45µm) containing PBS pH 7.4 buffer to a final maximum concentration of 130 μM (1.3 % DMSO/buffer). Solutions or suspensions were shaken for 30 min at room temperature. The samples were filtered under vacuum into a collection plate and diluted 50 % with ACN for UV analysis. Quantification was performed against a Reference plate containing the same tested compounds fully solubilized in ACN/PBS buffer 1:1. Reference and Sample plates were analyzed by UPLC/UV-MS using a generic UPLC method. […]

[1] = Microsomal stability, human liver microsomes; type: in vitro ADME; conditions: both sexes, pH 7.4, read-out: CLint hLM
Protocol: (§1) Tested compounds (1 μM) were incubated with pooled human liver microsomes (Xenotech; pooled male and female) and pooled mouse liver microsomes (Xenotech; male CD-1 mice).
(§2) Microsomes (final protein concentrations of 0.25 and 0.5 mg/ml, 0.1 M phosphate buffer pH 7.4) containing tested compound (final substrate concentration 1 μM; final DMSO concentration 0.25 %) were preincubated at 37 °C prior to the addition of NADPH (final concentration 1 mM) to initiate the reaction. The final incubation volume was 200 μl. 3 species-specific control compounds were included with each species. At 5 time points (0, 5, 10, 20, and 40 min), reactions were stopped by transferring 50 μl of the incubation mixture into 0.5 μM carbamazepine in acetonitrile. Tested compound concentrations were analyzed by LC-MS/MS and the resulting data were used to determine the half-life and intrinsic clearance of the compound in each

[2] = Microsomal stability, mouse liver microsomes; type: in vitro ADME; conditions: male, CD-1, mouse, pH 7.4; murine liver microsomes; read-out: CLint mLM
Protocol: as §1, §2

[3] = Plasma protein binding by equilibrium dialysis, murine; type: in vitro ADME; conditions: mouse, read-out: PPB (% bound)
Protocol: The free and bound fractions of the tested compounds in mouse and human plasma were determined by equilibrium dialysis using a 96-well Teflon dialysis unit (HTDialysis plate complete unit, HT Dialysis, USA). The HTDialysis plate complete unit consists of a 96-well plate with wells vertically bisected by a semipermeable membrane (membranes strips 12 to 14 kDa) creating two chambers. A 125 μL aliquot of plasma containing tested compound at 10 μM was placed on one side and 125 μL of Dulbecco‘s phosphate buffered saline (D-PBS) on the other. The plate was incubated at 37 °C for 6 hr under gentle agitation. Then, samples from both plasma and buffer compartment were analyzed by a LC-MS/MS method to measure the free fraction and the bound fraction to the plasma proteins. […]

PK parameters in mice = type: in vivo, male Swiss (CD-1) mice; conditions: male, Swiss (CD-1), plasma, mouse
Protocol: PK parameters and tissue distribution in mice
The pharmacokinetic profiles of the tested compounds were evaluated in male Swiss (CD-1) mice around 5-6 weeks old (3 animals per sampling time). […]
0.2 % Tween 80 in water. Blood samples were collected (0.25 mL) from the sinus retro-orbital […]
24 hr for p.o. route. The blood samples were immediately centrifuged at 2500 rpm at +4 °C, and the plasma was stored at −80 °C. 50 μL of plasma sample was taken and 150 μL of acetonitrile was added. After protein precipitation, analysis of the molecule was performed using LC-MS/MS to determine plasma compound concentration. For liver and lung collection, 3 animals per group were involved and sampled after 2 hr and 24 hr upon 20 mg/kg p.o. administration. Animals were perfused with around 10 mL of saline solution directly into the heart to extract the maximal blood sample from the liver and the lung. Animals were then sacrificed by cervical dislocation and liver

influenza A H1N1 virus [4] = experiment: microbe, parasite or virus in culture; conditions: H1N1, A549, read-out: IC50 for the inhibition of influenza virus replication
[5] = system: diet-induced obese model of NASH; experiment: NASH mouse model (AMLN diet-induced obese); type: in vivo, C57BL/6JRj mice; conditions: oral, 8 wk; dEF3122 twice daily 7 or 20 mg/kg, OCA once daily 7 mg/kg; vs vehicle
Protocol: Fig. 6. Effect of the lead compound in a diet-induced obese model of NASH. Mice fed with a high fat, high fructose, and cholesterol supplemented diet for 38 wk were then treated in the last 8 wk with vehicle, dEF3122, or OCA (obeticholic acid) at indicated concentrations (n = 12 animals per group). (A and B) Histopathological mean score changes between the beginning and end of the treatment for liver portal inflammation (A) and liver portal fibrosis (B) are shown with representative stained liver sections of hematoxylin and eosin (H&E) and picrosirius red stains, respectively. (C–E) (C) Areas of kidney fibrosis at the end of the treatment are shown as % of the total area of the selected fields with representative sections of the kidney stained with picrosirius red. (D) % CD3 and (E) % F4/80 positive areas in kidneys with representative sections of CD3 and F4/80 immunostainings. *P < 0.05, **P < 0.01, and ***P < 0.001 from the T test with a preliminary nonsignificant Shapiro–Wilk test or from Wilcoxon signed–rank test otherwise.
Five-week-old male C57BL/6JRj mice were fed either chow diet or AMLN diet (40% total fat kcal of which 18.5% were trans-fat kcal, 20% fructose, and 2% cholesterol). This diet was maintained for 30 wk prior to study initiation. Three weeks prior to study initiation, liver biopsies were taken, and animals with steatosis grade <2 and fibrosis stage <1 were excluded from the study. Prior to the first administration of the test compound, stratified randomization of mice into treatment groups was performed according to collagen 1a1 (IHC) morphometry from the week 3 biopsies. Each treatment group consisted of 12 mice. For a total of 8 wk, compound dEF3122 was administered orally, twice daily at a concentration of 7 mg/kg or 20 mg/kg. OCA was administered orally, once daily at a concentration of 7 mg/kg. Animals were killed at the end of the treatment, and livers and kidneys were collected. […]
NASH histopathology and immunochemistry
Livers were fixed in 10 % neutral buffered formalin and paraffin-embedded; and sections were stained with H&E and picrosirius red to analyze their morphology. Histopathological analysis was performed by a pathologist blinded to the study. Fibrosis was evaluated by quantification of the picrosirius red positive areas. Inflammation was graded by counting the H&E positive inflammatory foci per field.
Kidneys were fixed in 4 % PFA and paraffin embedded. 4-μm sections were stained with picrosirius red. Images were acquired using a digital slide scanner (Nanozoomer S210 Digital Slide Scanner, Hamamatsu). Renal lesions were blindly examined by a renal pathologist. The extent of interstitial fibrosis was quantified using Image J software (NIH) on Sirius red scanned colored sections. In short, at least 20 random selected fields (original magnification, ×200) across the kidney cortex were analyzed per each kidney section, and the results were expressed as percentages of the total area of the selected fields.
For immunohistochemistry, 4-µm sections of paraffin-embedded kidneys were submitted for appropriate antigen retrieval by high pressure heating in a solution of Tris EDTA Tween or in a citrate solution. Then, sections were then incubated overnight at 4°C with the following antibodies: rabbit monoclonal anti-CD3 (Abcam, 1:100) and rat monoclonal anti- F4/80 (Biorad, 1:100). After washing, sections were incubated with appropriate amplification secondary antibody: biotin-coupled anti-rabbit (GE Healthcare) for CD3 and biotin-coupled anti-rat (Vector Laboratories) for F4/80, and then incubated with streptavidin coupled HRP (Southern). At the end, DAB (DAKO) staining was used to detect HRP. For quantification of CD3+ and F4/80+ renal cells, the degrees of cellular infiltrate were automatically quantified using ImageJ software (NIH) and expressed as a percentage of the surface area of the positive staining per field, in at least 10 random fields perp

HIV1 strain NL4-3 = type: cell-based; conditions: normalized mean of HIV1 replication readout
HCV replicon = type: cell-based; conditions: normalized mean of HCV replicon readout
[6] = system: F. novicida (strain U112); type: cell-based
influenza A H1N1 virus [7] = conditions: 48 hr post-treatment, A549
EBV = conditions: normalized mean of EBV replication readout

Compound	solubility kinetic at 30 min (Kinetic solubility) [µM]	IC50 (influenza A H1N1 virus [4]) [µM]	HIV1 Norm MEAN (HIV1 strain NL4-3; peptide screen)	HCV Norm MEAN (HCV replicon; peptide screen)	Francisella novicida Norm AUC [6]	Neuraminidase activity normalized to vehicle (influenza A H1N1 virus [7]; 200 µM peptide)	Neuraminidase activity normalized to vehicle (influenza A H1N1 virus [7]; 0,823 µM peptide)	Neuraminidase activity normalized to vehicle (influenza A H1N1 virus [7]; 22,2 µM peptide)	Neuraminidase activity normalized to vehicle (influenza A H1N1 virus [7]; 2,4691 µM peptide)	Neuraminidase activity normalized to vehicle (influenza A H1N1 virus [7]; 7,4074 µM peptide)	Neuraminidase activity normalized to vehicle (influenza A H1N1 virus [7]; 66,6667 µM peptide)	EBV Norm MEAN (EBV; peptide screen)	further results
O=C(Nc1ccc(Cl)cc1)c1c(NC(=O)C2CCCCC2C(=O)O)sc2c1CCC2 (stereo not shown) [dEF384]	74 (≈ 33.1 µg/mL)	5											microsomal CLint at 1 µM [1]: < 14 µL/min/mg; microsomal CLint at 1 µM [2]: < 20 µL/min/mg; fraction unbound at 6 h, 10 µM [3]: < 0.01; half-life (PK parameters in mice; iv 0.9 mg/kg, read-out: T1/2 iv (converted)): 1.08 h; Cmax (PK parameters in mice; po 10 mg/kg): 31300 ng/mL; bioavailability (PK parameters in mice; po 10 mg/kg, iv 0.9 mg/kg): 71%; half-life (PK parameters in mice; po 10 mg/kg, read-out: T1/2 po (converted)): 1.74 h
CCOC(=O)c1c(NC(=O)C2CCCCC2C(=O)O)sc2c1CCC(C(C)(C)C)C2 (stereo not shown) [dEF2586]	173 (≈ 75.4 µg/mL)	3											
CC[C@H]1[C@@H](O)[C@@H]2[C@H](CC[C@]3(C)[C@@H]([C@H](C)CCC(=O)O)CC[C@@H]23)[C@@]2(C)CC[C@@H](O)C[C@@H]12 [OCA, obeticholic acid, reference compound]													liver portal fibrosis [5]: significantly reduced portal fibrosis; liver portal inflammation [5]: failed to alleviate portal inflammation
COc1ccc(C(=O)Nc2sc3c(c2C(=O)O)CCC(C(C)(C)C)C3)cc1 (stereo not shown) [dEF2665]	< 5	0.15											microsomal CLint at 1 µM [1]: 38 µL/min/mg; microsomal CLint at 1 µM [2]: 50 µL/min/mg; fraction unbound at 6 h, 10 µM [3]: 0.001
CPEP126: peptide of the viral peptide library; sequence page not shown (TQNLYPDLSEIKK)			0.6553	0.4853	1.192	0,8408	0,9498	0,8904	0,9431	0,8627	0,9364	0.8026	
TRVESENKVVILDSFD [CPEP93]			10.6718	0.8288	0.7068	1,1147	1,1071	1,1929	1,0829	1,1322	1,0883	1.069	
CMSCCRSSRTRRETQL [CPEP57]			1.032	0.7555	0.5573	0,9828	1,0672	1,1821	0,702	1,111	0,9599	0.8928	
QRRGRTGRG [CPEP40]					1.732	0,9281	1,0647	1,004	0,9944	1,0761	0,9318		HIV1 Norm MEAN (HIV1 strain NL4-3): 0.4037; HCV Norm MEAN (HCV replicon): 0.7133; EBV Norm MEAN (EBV): 0.7195
